Results reported in the supplement of paper PMC10331698.
± gives the standard deviation of the averaged measurements.

Key:
Experiment in all cases: level (log10 ratio to DMSO vehicle control); higher = higher biomarker level / cell amount than vehicle control
[1] = compound: OCCCC(F)(F)C(F)(F)C(F)(F)C(F)(F)C(F)(F)C(F)(F)C(F)(F)F [7:3 Fluorotelomer alcohol]; conditions: 6700 nM; in DMSO
Procedure: (§1)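 BioMAP Diversity Plus panel of 12 human primary cell co-culture systems (3C, 4H, LPS, SAg, BT, BF4T, BE3C, CASM3C, HDF3CGF, KF3CT, MyoF, Mphg). Compounds were added 1 h before stimulation and left for 24 h (MyoF 48 h; BT 72 h for soluble read-outs or 6 d for IgG). Biomarkers were read by ELISA, cytotoxicity by SRB, PBMC viability and proliferation by Alamar Blue. Each well value was divided by the mean of 8 DMSO control wells on the same plate and log10 transformed; duplicate blinded samples were tested at 4 concentrations.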

[2] = compound: OCCC(F)(F)C(F)(F)C(F)(F)C(F)(F)C(F)(F)C(F)(F)F [6:2 Fluorotelomer alcohol]; conditions: in DMSO
Procedure: as §1

[3] = compound: NCC(F)(F)C(F)(F)C(F)(F)C(F)(F)C(F)(F)C(F)(F)C(F)(F)F [1H,1H-Perfluorooctylamine]; conditions: in DMSO
Procedure: as §1

[4] = compound: O=C(O)C(F)(F)OC(F)(F)C(F)(F)OC(F)(F)F [Perfluoro-3,6-dioxaheptanoic acid]; conditions: in DMSO
Procedure: as §1

Perfluorobutanoic acid = compound: O=C(O)C(F)(F)C(F)(F)C(F)(F)F [Perfluorobutanoic acid]; conditions: in DMSO
Procedure: as §1

[5] = compound: CCN(CCO)S(=O)(=O)C(F)(F)C(F)(F)C(F)(F)C(F)(F)C(F)(F)C(F)(F)C(F)(F)C(F)(F)F [N-Ethyl-N-(2-hydroxyethyl)perfluorooctanesulfonamide]; conditions: in DMSO
Procedure: as §1

[6] = compound: FC(F)(F)C(F)(C(F)(F)F)C(F)(F)C(F)(F)CC1CO1 [3-(Perfluoro-3-methylbutyl)-1,2-propenoxide]; conditions: in DMSO
Procedure: as §1

[7] = compound: FC(F)(F)C(F)(F)C(F)(F)C(F)(F)C(F)(F)CCI [1-Iodo-1H,1H,2H,2H-perfluoroheptane]; conditions: in DMSO
Procedure: as §1

Row | Test System | level (log10) [1] | level (log10) ([2]; 6700 nM) | level (log10) ([2]; 20000 nM) | level (log10) ([3]; 6700 nM) | level (log10) ([3]; 20000 nM) | level (log10) ([3]; 60000 nM) | level (log10) ([4]; 6700 nM) | level (log10) ([4]; 20000 nM) | level (log10) ([4]; 60000 nM) | level (log10) (Perfluorobutanoic acid; 6700 nM) | level (log10) (Perfluorobutanoic acid; 20000 nM) | level (log10) (Perfluorobutanoic acid; 60000 nM) | level (log10) ([5]; 6700 nM) | level (log10) ([5]; 20000 nM) | level (log10) ([6]; 6700 nM) | level (log10) ([6]; 20000 nM) | level (log10) ([7]; 6700 nM) | level (log10) ([7]; 20000 nM) | level (log10) ([7]; 60000 nM)
1 | CASM3C:CD87/uPAR | -0.036 ± 0.057 | -0.026 ± 0.013 | -0.002 ± 0.0042 | -0.044 ± 0.083 | -0.0315 ± 0.043 | 0.025 ± 0.047 | -0.0105 ± 0.043 | 0.022 ± 0.013 | -0.006 ± 0.018 | -0.005 ± 0.013 | 0.0095 ± 0.0021 | -0.0085 ± 0.026 | -0.0595 ± 0.0092 | -0.09 ± 0.038 | -0.013 ± 0.016 | 0.002 ± 0.017 | 0.008 ± 0.016 | -0.0075 ± 0.0078 | -0.0265 ± 0.037
2 | CASM3C:CD106/VCAM-1 | -0.012 ± 0.016 | 0.0105 ± 0.018 | 0.017 ± 0.0099 | -0.018 ± 0.058 | -0.007 ± 0.035 | -0.0105 ± 0.015 | 0.0345 ± 0.029 | 0.0105 ± 0.037 | -0.06 ± 0.021 | -0.007 ± 0.016 | -0.006 ± 0.0014 | -0.039 ± 0.018 | -0.085 ± 0.0057 | -0.219 ± 0.021 | -0.022 ± 0.014 | -0.0145 ± 0.019 | 0.0215 ± 0.005 | -0.0015 ± 0.0078 | -0.063 ± 0.0014
3 | CASM3C:CD141/Thrombomodulin | 0 ± 0.0014 | 0.0235 ± 0.0092 | 0.005 ± 0.023 | -0.017 ± 0.025 | -0.0055 ± 0.005 | 0.031 ± 0.045 | 0.032 ± 0.0085 | 0.019 ± 0.03 | 0.0295 ± 0.013 | 0.0145 ± 0.021 | 0.022 ± 0.0028 | -0.0045 ± 0.037 | 0.078 ± 0.014 | 0.191 ± 0.013 | 0.003 | 0 ± 0.044 | -0.011 ± 0.0085 | 0.0015 ± 0.012 | 0.0845 ± 0.012
4 | CASM3C:CD142/Tissue Factor | -0.011 ± 0.016 | 0.004 ± 0.014 | 0.0075 ± 0.0064 | -0.018 ± 0.0014 | -0.0135 ± 0.015 | 0.021 ± 0.03 | -0.049 ± 0.089 | -0.0195 ± 0.097 | 0.014 ± 0.088 | -0.002 | 0.007 ± 0.0099 | -0.0505 ± 0.00071 | -0.0325 ± 0.012 | 0.0145 ± 0.022 | -0.038 ± 0.047 | -0.033 ± 0.014 | 0.001 ± 0.0085 | -0.0065 ± 0.005 | -0.0295 ± 0.028
5 | CASM3C:CXCL8/IL-8 | -0.0145 ± 0.005 | 0.019 ± 0.0014 | 0.0195 ± 0.015 | -0.005 ± 0.0057 | -0.022 ± 0.013 | 0.005 ± 0.027 | 0.011 ± 0.037 | 0.018 ± 0.052 | 0.0295 ± 0.039 | -0.001 ± 0.013 | -0.0065 ± 0.005 | 0.008 ± 0.013 | -0.0075 ± 0.016 | -0.024 ± 0.0085 | -0.0065 ± 0.005 | -0.003 ± 0.0014 | 0.002 ± 0.0028 | -0.0025 ± 0.0035 | 0.003 ± 0.018
6 | CASM3C:CXCL9/MIG | -0.0125 ± 0.0035 | -0.011 ± 0.025 | -0.0165 ± 0.0035 | -0.014 ± 0.021 | -0.0245 ± 0.0021 | 0.006 ± 0.04 | 0.028 ± 0.058 | 0.0245 ± 0.083 | 0.0415 ± 0.087 | 0.001 ± 0.0028 | -0.004 ± 0.0028 | 0.007 ± 0.0057 | -0.0675 ± 0.005 | -0.166 ± 0.073 | -0.015 ± 0.014 | -0.001 ± 0.017 | -0.007 ± 0.0042 | -0.0025 ± 0.0021 | 0.008 ± 0.011
7 | CASM3C:HLA-DR | 0.008 ± 0.0071 | 0 ± 0.025 | -0.025 ± 0.023 | -0.01 ± 0.0028 | -0.0085 ± 0.032 | 0.029 ± 0.0042 | -0.0355 ± 0.069 | -0.0385 ± 0.074 | -0.047 ± 0.057 | 0.012 ± 0.011 | 0.0065 ± 0.015 | -0.0085 ± 0.018 | -0.002 ± 0.024 | -0.111 ± 0.013 | -0.0105 ± 0.026 | -0.0185 ± 0.0092 | -0.006 ± 0.0099 | -0.0055 ± 0.0064 | -0.009 ± 0.021
8 | CASM3C:IL-6 | 0.0015 ± 0.012 | 0.0015 ± 0.018 | -0.004 ± 0.0099 | -0.0245 ± 0.037 | 0.0005 ± 0.057 | 0.035 ± 0.081 | -0.01 ± 0.044 | -0.0255 ± 0.0035 | -0.017 ± 0.02 | -0.0295 ± 0.012 | -0.0175 ± 0.021 | 0.0115 ± 0.044 | -0.0025 ± 0.0035 | -0.0255 ± 0.044 | -0.02 ± 0.0057 | 0.007 ± 0.027 | -0.0145 ± 0.022 | -0.044 ± 0.0057 | -0.017 ± 0.018
9 | CASM3C:LDLR | 0.012 ± 0.0028 | 0.031 ± 0.011 | 0.023 ± 0.0028 | -0.0295 ± 0.005 | -0.018 ± 0.023 | 0.007 ± 0.0042 | -0.0145 ± 0.033 | -0.013 ± 0.037 | -0.0015 ± 0.005 | -0.013 ± 0.028 | -0.018 ± 0.02 | 0.0095 ± 0.015 | -0.076 ± 0.0057 | -0.223 ± 0.021 | -0.012 ± 0.017 | -0.002 ± 0.011 | 0.0005 ± 0.011 | 0.009 | 0.013 ± 0.016
10 | CASM3C:M-CSF | 0.007 ± 0.0042 | -0.018 ± 0.0014 | 0.019 ± 0.016 | -0.059 ± 0.027 | -0.0055 ± 0.0078 | 0.0115 ± 0.061 | -0.09 ± 0.035 | -0.02 ± 0.023 | 0.034 ± 0.0014 | -0.0095 ± 0.0064 | -0.0205 ± 0.013 | 0.0275 ± 0.063 | 0.0045 ± 0.00071 | 0.0395 ± 0.0092 | -0.0175 ± 0.0021 | 0.008 ± 0.042 | -0.0055 ± 0.035 | -0.0145 ± 0.011 | -0.0265 ± 0.0092
11 | CASM3C:PAI-I | -0.005 ± 0.0014 | 0.0105 ± 0.00071 | 0.005 ± 0.0057 | -0.0055 ± 0.012 | 0.0025 ± 0.0064 | -0.0015 ± 0.005 | -0.004 ± 0.0099 | -0.013 ± 0.024 | -0.0105 ± 0.018 | -0.002 ± 0.0099 | -0.003 ± 0.018 | -0.0005 ± 0.011 | 0 ± 0.0071 | 0.004 ± 0.0085 | -0.0025 ± 0.0021 | 0.0045 ± 0.011 | 0.003 ± 0.0042 | 0.001 ± 0.0014 | 0.007 ± 0.0042
12 | CASM3C:Proliferation | 0.052 ± 0.0057 | -0.004 ± 0.021 | -0.0205 ± 0.023 | 0.0025 ± 0.012 | 0.005 ± 0.016 | -0.0095 ± 0.0092 | 0.02 ± 0.016 | -0.034 ± 0.065 | -0.077 ± 0.017 | 0.01 ± 0.0099 | -0.0015 ± 0.025 | -0.007 ± 0.017 | 0.011 ± 0.04 | -0.175 ± 0.005 | -0.001 ± 0.047 | 0.0195 ± 0.071 | -0.034 ± 0.0071 | -0.101 ± 0.062 | -0.106 ± 0.054
13 | CASM3C:SRB | 0.006 ± 0.0028 | 0.0075 ± 0.005 | -0.003 ± 0.0028 | -0.002 ± 0.0028 | -0.001 ± 0.013 | 0.0035 ± 0.018 | -0.0065 ± 0.00071 | -0.002 ± 0.0028 | -0.0005 ± 0.0035 | 0.0005 ± 0.0064 | -0.0055 ± 0.011 | 0.002 ± 0.0042 | -0.0265 ± 0.0078 | -0.097 ± 0.014 | 0.004 ± 0.0042 | -0.001 ± 0.014 | 0.0035 ± 0.0021 | -0.0075 ± 0.0078 | -0.024 ± 0.0028
14 | CASM3C:Serum Amyloid A | -0.0135 ± 0.028 | -0.013 ± 0.0028 | -0.009 ± 0.0042 | 0.0345 ± 0.036 | 0.043 ± 0.069 | 0.015 ± 0.061 | -0.038 ± 0.055 | -0.014 ± 0.0085 | -0.002 ± 0.086 | -0.021 | 0.0225 ± 0.016 | -0.009 ± 0.041 | 0.0875 ± 0.037 | 0.129 ± 0.042 | -0.0235 ± 0.012 | 0.0035 ± 0.047 | 0.011 ± 0.023 | 0.003 ± 0.0014 | -0.0195 ± 0.026
15 | HDF3CGF:CCL2/MCP-1 | -0.0085 ± 0.0092 | 0.0015 ± 0.0035 | 0.0095 ± 0.019 | -0.006 ± 0.016 | -0.0045 ± 0.012 | -0.0165 ± 0.0078 | 0.0155 ± 0.029 | 0.027 ± 0.023 | 0.0055 ± 0.049 | -0.008 ± 0.021 | 0.004 ± 0.014 | 0.017 ± 0.0014 | -0.0485 ± 0.005 | -0.1335 ± 0.00071 | -0.0175 ± 0.022 | -0.004 ± 0.0099 | 0.0085 ± 0.0035 | 0.02 ± 0.021 | -0.013 ± 0.035
